Test results: patent publication US12479927B2, “Compounds comprising cleavable linker and uses thereof” (priority 2017, dated 2025)

Experiments:
[1] = tested on: SKBR-3 cancer cells; test: In vitro analysis of antibody-drug conjugate, SKBR-3; type: cell-based; settings: 96 hours
Experimental: (§1) KB cancer cells were collected and seeded in 24-well plates at a density of 30,000 cells per well in 2 mL of medium, and cultured for 24 hours. Then, the serial dilutions of compound C-1 obtained in Example 108 were treated from 30 nM to 0.0096 nM, the serial dilutions of compound C-2 obtained in Example 109 were treated from 1000 nM to 0.32 nM, serial dilutions of the compound C-3 obtained in Example 110 and the compound C-7 obtained in Example 114 were treated from 25 nM to 0.0016 nM, and serial dilutions of the drug MMAF-OMe were treated from 10 nM to 0.0097 nM. The serial dilutions of compounds C-5 and C-6 obtained in Example 112 and Example 113 were treated from 100 nM to 0.0001 nM, and the serial dilutions of drug seco-DUBA were treated from 100 nM to 0.001 nM. […] The formazans formed by reduction of the MTT dye by mitochondrial oxidoreductases in the living cells were dissolved in DMSO, and measured using the absorbance at 550 nm.
(§2) KB, SKBR-3, BT-474, NCI-N87 cancer cells were seeded in 96-well plates at a density of 2,000 to 8,000 cells per well in 100 μL of medium, and cultured for 24 hours. […] Experiments were performed in a similar manner to Test Example 3 to quantify living cells 96 hours later, and results are shown in Tables 4 and 5 below.

[2] = tested on: BT-474 cancer cells; test: In vitro analysis of antibody-drug conjugate, BT-474; type: cell-based; settings: 96 hours
Experimental: as §1, §2

[3] = tested on: NCI-N87 cancer cells; test: In vitro analysis of antibody-drug conjugate, NCI-N87; type: cell-based; settings: 96 hours
Experimental: as §1, §2

[4] = tested on: NCI-N87 cells; test: In vivo efficacy, tumor xenograft; design: species or system mice; settings: male BALB/c nu/nu, single i.v. injection day 0, 2 mg/kg
Experimental: In vivo efficacy of antibody-drug conjugates of the invention was measured by tumor xenograft studies in mice. Male BALB/c nu/nu were injected subcutaneously in the right flank with suspensions of 1×10^6 of NCI-N87 cells respectively in PBS. Mice were randomized into study groups when tumors reached approximately 100 mm^3. T-DM1 (2 mg/kg), D-1-AB, D-2-AB, D-8-AB, and D-18-AB conjugates (0.5 mg/kg or 2 mg/kg) were given i.v. (single injection on treatment day 0). All treatment groups consisted of 6 to 10 animals per group, and tumor size was monitored twice weekly using caliper measurement. The tumor mass was calculated as volume=(width×width×length)/2.

[5] = target: Escherichia coli β-galactosidase (Escherichia coli, UniProt P00722); test: in vitro; settings: recombinant enzyme, pH 7.4
Chain of Escherichia coli β-galactosidase (P00722 2-1024): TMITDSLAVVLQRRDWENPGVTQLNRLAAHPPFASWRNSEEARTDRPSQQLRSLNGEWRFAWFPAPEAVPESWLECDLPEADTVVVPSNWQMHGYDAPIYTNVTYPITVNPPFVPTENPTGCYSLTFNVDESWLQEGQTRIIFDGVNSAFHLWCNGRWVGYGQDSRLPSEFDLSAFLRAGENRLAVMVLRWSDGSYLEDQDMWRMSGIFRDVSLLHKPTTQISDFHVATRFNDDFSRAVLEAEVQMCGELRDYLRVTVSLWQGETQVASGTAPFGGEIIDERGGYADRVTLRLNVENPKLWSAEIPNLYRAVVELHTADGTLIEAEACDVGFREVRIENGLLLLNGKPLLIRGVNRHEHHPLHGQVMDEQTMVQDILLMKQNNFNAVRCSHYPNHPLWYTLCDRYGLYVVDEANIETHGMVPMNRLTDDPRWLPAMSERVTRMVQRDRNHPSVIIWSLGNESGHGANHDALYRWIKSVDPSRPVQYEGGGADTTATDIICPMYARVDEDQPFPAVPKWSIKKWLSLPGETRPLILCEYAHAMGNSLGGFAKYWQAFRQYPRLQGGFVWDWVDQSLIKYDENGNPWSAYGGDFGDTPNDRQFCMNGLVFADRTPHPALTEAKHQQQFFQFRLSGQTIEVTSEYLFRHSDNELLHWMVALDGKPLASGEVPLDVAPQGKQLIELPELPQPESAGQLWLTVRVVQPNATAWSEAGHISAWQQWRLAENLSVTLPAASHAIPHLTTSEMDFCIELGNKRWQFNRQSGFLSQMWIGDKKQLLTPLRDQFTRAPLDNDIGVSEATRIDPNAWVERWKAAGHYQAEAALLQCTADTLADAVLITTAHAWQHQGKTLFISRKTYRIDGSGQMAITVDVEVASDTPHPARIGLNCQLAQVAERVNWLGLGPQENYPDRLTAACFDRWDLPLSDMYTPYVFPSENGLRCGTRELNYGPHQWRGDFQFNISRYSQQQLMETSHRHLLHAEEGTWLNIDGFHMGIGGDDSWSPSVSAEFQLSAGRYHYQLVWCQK
Experimental: Method 1. Escherichia coli β-galactosidase
MPS used as a standard material was dissolved in PBS buffer solution to make 500 uM solution. […] This was followed by the addition of enzyme solution (14 μL of 1 mg/mL). When comparing with human β-galactosidase, 21 μL of enzyme solution (1 mg/mL) was added to achieve the same molar concentration, and the compound of the present invention and MPS each having an amount of 140 μL and […] of the buffer solution (pH 7.4) were mixed. The resulting reaction mixture was incubated at 37° C. Escherichia coli β-galactosidase enzyme (Sigma G4155) was used in the reaction mixture. The enzyme reaction solution was aliquoted at 0 min before the reaction and at a predetermined time after the reaction, respectively, wherein each aliquot was 70 μL. Then, the remaining compound of the present invention or MPS, and a material liberated by the enzyme reaction were quantitatively analyzed by HPLC.

[6] = target: T1, Escherichia coli β-glucuronidase (Escherichia coli, UniProt P05804); test: Enzymatic cleavage assay, Method 3; type: biochemical; settings: Escherichia coli β-glucuronidase (Sigma G7396) in PBS buffer, PBS pH 7.4, 37° C., HPLC, read-out: TG release t1/2(min)
T1 construct: purchased Sigma G7396
T1 sequence (P05804 whole entry): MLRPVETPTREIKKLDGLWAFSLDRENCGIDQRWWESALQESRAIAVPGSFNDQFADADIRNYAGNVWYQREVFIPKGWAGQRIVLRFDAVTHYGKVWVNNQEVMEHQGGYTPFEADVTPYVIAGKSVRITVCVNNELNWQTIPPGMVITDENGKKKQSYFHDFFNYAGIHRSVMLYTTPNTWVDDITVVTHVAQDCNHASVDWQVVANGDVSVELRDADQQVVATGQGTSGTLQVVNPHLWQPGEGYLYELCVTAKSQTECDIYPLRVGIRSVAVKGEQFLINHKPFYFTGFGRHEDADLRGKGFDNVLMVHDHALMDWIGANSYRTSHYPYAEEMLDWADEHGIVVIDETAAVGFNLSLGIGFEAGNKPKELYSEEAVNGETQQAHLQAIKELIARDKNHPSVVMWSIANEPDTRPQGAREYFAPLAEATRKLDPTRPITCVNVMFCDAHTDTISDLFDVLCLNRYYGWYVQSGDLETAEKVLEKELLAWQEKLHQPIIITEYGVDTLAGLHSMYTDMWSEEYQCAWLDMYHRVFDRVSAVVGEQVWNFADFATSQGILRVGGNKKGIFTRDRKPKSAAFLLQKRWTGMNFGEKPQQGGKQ
Experimental: Method 3) Escherichia coli β-glucuronidase
The compounds A-1 and A-5 of the present invention were dissolved in DMSO, and mixed with PBS buffer solution to prepare a solution having a concentration of 500 μM (5% DMSO). MPS used as a standard material was prepared as a solution to have a concentration of 500 μM in PBS buffer solution. […] Then, 14 μL of enzyme solution (1 mg/mL) was added thereto, thereby preparing an enzyme reaction solution in a total amount of 700 μL. The reaction mixture was incubated at 37° C. Escherichia coli β-glucuronidase enzyme (Sigma G7396) was used in the reaction mixture.

[7] = tested on: Escherichia coli β-galactosidase + β-glucuronidase; test: Enzymatic cleavage assay, Method 4; type: biochemical; settings: PBS pH 7.4, 37° C., HPLC, read-out: TG release t1/2(min)
Experimental: Method 4 Escherichia coli β-Galactosidase+β-Glucuronidase
The compound A-5 of the present invention was dissolved in DMSO, and mixed with PBS buffer solution to prepare a solution having a concentration of 500 μM (5% DMSO). MPS used as a standard material was prepared as a solution to have a concentration of 500 μM in PBS buffer solution. […] Then, 14 μL of 1 mg/mL of β-galactosidase (Sigma G4155) and 14 μL of 1 mg/mL of β-glucuronidase (Sigma G7396) were added thereto, thereby preparing an enzyme reaction mixture in a total amount of 700 μL. The reaction mixture was incubated at 37° C.

[8] = Plasma stability test, mouse; type: in vitro ADME; settings: 37° C., up to 7 days, 300 μM
Experimental: (§3) The compound A-1 obtained in Example 58 and MPS used as a standard material were dissolved in DMSO to make a concentration of 60 mM. Then, each of human plasma (Biochemed 752R-SC-PMG), mouse plasma (Biochemed 029-APSC-MP), rat plasma (Biochemed 031-APSC-MP), and beagle dog plasma (Biochemed 013-APSC-MP) were mixed with the compound and MPS to make a final concentration of 300 μM (final 0.5% DMSO). The resulting plasma mixtures were incubated at 37° C. water bath. Aliquots were taken before the reaction and on 1 day, 2 days, 4 days, and 7 days after the reaction, wherein each aliquot was 300 μL. To complete the reaction, two-fold volumes of acetonitrile was added, followed by brief vortexing, and centrifugation for plasma protein precipitation. Each supernatant obtained after centrifugation was collected and analyzed by HPLC. The compound A-1 was detected and quantitated in the mouse, rat, beagle dog, and human plasma for up to 7 days (>95%).

[9] = Plasma stability test, rat; type: in vitro ADME; settings: 37° C., up to 7 days, 300 μM
Experimental: as §3

[10] = Plasma stability test, dog; type: in vitro ADME; settings: beagle dog plasma, 37° C., up to 7 days, 300 μM
Experimental: as §3

[11] = Plasma stability test, human; type: in vitro ADME; settings: 37° C., up to 7 days, 300 μM
Experimental: as §3

[12] = Chemical stability in PBS; type: physicochemical; settings: PBS (pH 7.4), room temperature, light blocked, 7 days incubation
Experimental: The compound A-1 obtained by Example 58 was dissolved in DMSO, and mixed with PBS (pH 7.4) buffer solution to prepare a solution having a concentration of 500 μM (5% DMSO). MPS used as a standard material was prepared as a solution to have a concentration of 500 μM in PBS buffer solution. 420 μL of the buffer solution, and 140 μL of the compound A-1 solution and 140 μL of MPS solution were mixed, thereby preparing a reaction mixture in a total amount of 700 μL. The reaction mixture was incubated at room temperature while blocking the light. The reaction mixture was aliquoted on 0 day before the reaction and on 1 day, 2 days, 4 days, and 7 days after the reaction, wherein each aliquot amount was 70 μL. Then, the remaining compound A-1, MPS, and liberated tyrosine were quantitated by HPLC analysis.

Compound | IC50 [1] | IC50 [2] | IC50 [3] | activity compared with the conjugates of the invention [4] | half-life at 100 μM [5] | half-life at 100 μM [6] | half-life at 100 μM [7] | compound detected and quantitated in plasma [8] | compound detected and quantitated in plasma [9] | compound detected and quantitated in plasma [10] | compound detected and quantitated in plasma [11] | compound present (remaining) [12]
T-DM1 | 0.02 nM | 0.18 nM | 0.02 nM | less active |  |  |  |  |  |  |  | 
CC(C)(C)OC(=O)N[C@H](Cc1ccc(OS(=O)(=O)Oc2ccccc2O[C@@H]2O[C@H](COC3O[C@H](C(=O)O)[C@@H](O)[C@H](O)[C@H]3O)[C@H](O)[C@H](O)[C@H]2O)cc1)C(=O)O (stereo partly shown) [Compound A-5] |  |  |  |  | < 5 min | < 5 min | < 5 min |  |  |  |  | 
CC(C)(C)OC(=O)NC(Cc1ccc(OS(=O)(=O)Oc2ccccc2O[C@@H]2O[C@H](CO)[C@H](O)[C@H](O)[C@H]2O)cc1)C(=O)O (stereo partly shown) [Compound A-1] |  |  |  |  |  | 0.43 ± 0.11 min |  | > 95% | > 95% | > 95% | > 95% | > 95%
